Test results as given in patent US11851419B2, “GLP-1R modulating compounds” (Gilead Sciences, Inc., priority 2020, dated 2023).

How the values were obtained:
GLP-1R [1] = biological target: T1, GLP-1R (Homo sapiens, UniProt P43220); experiment: GLP-1R Activation - cAMP Assay 2 (cAMP increase in CHO cells stably expressing GLP-1R, pre-spotted agonists); assay type: cell-based; settings: assay buffer or 100% Human Plasma (not given), 30 minutes at 37° C.
Description: GLP-1R Activation—cAMP Assay 2
GLP-1R activation by small molecule agonists is quantified by measuring cAMP increase in CHO cells stably expressing GLP-1R (MultiSpan product #C1267-1a). 50 nL of agonists are pre-spotted in a 10 point dose response onto 384-well plate (Corning product #CL3826) using the Labcyte Echo System. The cells are harvested and plated in assay buffer (HBSS (Corning product #21-023-CV) with 20 mM Hepes (Gibco product #15630-080) and 0.1% BSA (Rockland Immunochemicals product #BSA-1000)) or 100% Human Plasma (Innovative Research product #50-643-396) at 1,000 cells/well, 10 µL/well, onto the pre-spotted plates. The cells are then incubated for 30 minutes at 37° C., 5% CO2. cAMP concentration increase is then detected using Cisbio's cAMP Gs Dynamic Kit (product #62AM4PEC) according to the manufacturer's protocol. The response is plotted against the log of the agonist concentration and fitted to a sigmoidal equation to determine the EC50.

GLP-1R [2] = biological target: T1, GLP-1R; experiment: GLP-1R Activation - cAMP Assay 1 (cAMP increase in CHO cells stably expressing GLP-1R); assay type: cell-based; settings: 10 point dose response, 30 minutes incubation at 37° C., cAMP Gs Dynamic Kit
Description: GLP-1R Activation—cAMP Assay 1
GLP-1R activation by a compound of the present disclosure was quantified by measuring cAMP increase in CHO cells stably expressing GLP-1R (MultiSpan product #C1267-1a). The cells were harvested and plated in growth medium (DMEM/F-12 (Corning product #10-090-CV) supplemented with 10% FBS (HyClone product #SH30071-03), penicillin/streptomycin (Corning product #30-002CI) and 10 µg/ml puromycin (Gibco product #A11138-03)) at 1,000 cells/well in a 384-well plate (Greiner product #781080). The cells were then incubated overnight at 37° C., 5% CO2. The next day, the medium was removed and the cells were washed with DPBS (Corning product #21-031-CM) before adding the assay medium (HBSS, Corning product #21-023-CV) with 20 mM Hepes (Gibco product #15630-080) and 0. 1% BSA (Rockland Immunochemicals product #BSA-1000)). Following the medium change, the cells were incubated for 1 hour at 37° C., 5% CO2. The tested GLP-1 compound was added to the cells in a 10 point dose response followed by a 30 minutes incubation at 37° C., 5% CO2. cAMP concentration increase was then detected using Cisbio's cAMP Gs Dynamic Kit (product #62AM4PEC) according to the manufacturer's protocol. The response was plotted against the log of the agonist concentration and fitted to a sigmoidal equation to determine the EC50.

T1 sequence (P43220 24-463): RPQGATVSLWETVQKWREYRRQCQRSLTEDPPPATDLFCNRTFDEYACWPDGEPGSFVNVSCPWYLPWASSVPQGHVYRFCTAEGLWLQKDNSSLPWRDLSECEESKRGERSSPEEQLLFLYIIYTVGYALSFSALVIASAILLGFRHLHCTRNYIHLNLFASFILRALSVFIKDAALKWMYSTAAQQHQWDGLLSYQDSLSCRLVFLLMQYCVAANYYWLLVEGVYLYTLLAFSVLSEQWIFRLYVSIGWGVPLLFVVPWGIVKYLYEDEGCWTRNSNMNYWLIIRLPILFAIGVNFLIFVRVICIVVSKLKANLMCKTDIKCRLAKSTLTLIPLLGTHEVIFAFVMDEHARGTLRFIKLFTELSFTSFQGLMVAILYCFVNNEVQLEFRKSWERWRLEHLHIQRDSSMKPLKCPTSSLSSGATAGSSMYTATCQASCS

Compound	EC50 (GLP-1R [1]) [nM]	EC50 (GLP-1R [2]) [nM]
COCCn1c(CC2CCN(c3cccc(OCc4ccc(C#N)cc4F)n3)CC2)nc2c(F)cc(C(=O)O)cc21 [Example 8]	13.2	5.3
COCCn1c(CN2CCC(c3cccc(OCc4ccc(C#N)cc4F)n3)CC2)nc2c(F)c(F)c(C(=O)O)cc21 [Example 10, 2-((4-(6-((4-cyano-2-fluorobenzyl)oxy)pyridin-2-yl)piperidin-1-yl)methyl)-4,5-difluoro-1-(2-methoxyethyl)-1H-benzo[d]imidazole-6-carboxylic Acid]	11.3	18.2
COCCn1c(CN2CCC(c3cccc(OCc4ccc(C#N)cc4F)n3)CC2)nc2c(COC)cc(C(=O)O)cc21 [Example 27, 2-((4-(6-((4-cyano-2-fluorobenzyl)oxy)pyridin-2-yl)piperidin-1-yl)methyl)-1-(2-methoxyethyl)-4-(methoxymethyl)-1H-benzo[d]imidazole-6-carboxylic Acid]	–	14.6
COCCn1c(C2CC23CCN(c2cccc(OCc4ccc(C#N)cc4F)n2)CC3)nc2c(F)cc(C(=O)O)cc21 (stereo not shown) [Example 7, 2-[6-[6-[(4-cyano-2-fluoro-phenyl)methoxy]-2-pyridyl]-6-azaspiro[2.5]octan-2-yl]-7-fluoro-3-(2-methoxyethyl)benzimidazole-5-carboxylic Acid]	10.3	3.8
COCCn1c(CN2CCC(c3cccc(OCc4ccc(C#N)cc4F)n3)CC2)nc2c(-c3cnn(C)c3)cc(C(=O)O)cc21 [Example 29, 2-((4-(6-((4-cyano-2-fluorobenzyl)oxy)pyridin-2-yl)piperidin-1-yl)methyl)-1-(2-methoxyethyl)-4-(1-methyl-1H-pyrazol-4-yl)-1H-benzo[d]imidazole-6-carboxylic Acid]	–	104
CC(C)(C#N)Cn1c(CN2CCC(c3cccc(OCc4ccc(C#N)cc4F)n3)CC2)nc2c(F)cc(C(=O)O)cc21 [Example 15]	–	0.24
COCCn1c(CN2CCC(c3cccc(OCc4ccc(C#N)cc4F)n3)CC2)nc2c(Cl)cc(C(=O)O)cc21 [Example 9]	2.6	6.6
COCCn1c(CN2CCC(c3cccc(OCc4ccc(C#N)cc4F)n3)CC2)nc2c(C3CC3)cc(C(=O)O)cc21 [Example 26, 2-((4-(6-((4-cyano-2-fluorobenzyl)oxy)pyridin-2-yl)piperidin-1-yl)methyl)-4-cyclopropyl-1-(2-methoxyethyl)-1H-benzo[d]imidazole-6-carboxylic Acid]	47.8	53.9
COCCn1c(CN2CCC(c3cccc(OCc4ccc(C#N)cc4F)n3)CC2)nc2c(C#N)cc(C(=O)O)cc21 [Example 25, 4-cyano-2-((4-(6-((4-cyano-2-fluorobenzyl)oxy)pyridin-2-yl)piperidin-1-yl)methyl)-1-(2-methoxyethyl)-1H-benzo[d]imidazole-6-carboxylic Acid]	7.1	3.5
COCCn1c(CN2CCC(c3cccc(OCc4ccc(C#N)cc4F)n3)CC2)nc2c(F)cc(C(=O)O)cc21 [Example 14, 2-[[4-[6-[(4-cyano-2-fluoro-phenyl)methoxy]-2-pyridyl]-1-piperidyl]methyl]-7-fluoro-3-(2-methoxyethyl)benzimidazole-5-carboxylic Acid]	–	1.04
